How the values were obtained:
Assay in all cases: differential drug sensitivity score (dDSS) relative to sarcoma reference cohort mean DSS (DSS units (0-100 scale difference)); higher = more selective sensitivity than reference sarcomas
Settings in all cases: exposure time: 72 h; concentration range: 10-10000 nM
[1] = tested on: ES-ZH004 (patient-derived Ewing sarcoma tumoroid)
Procedure: (§1)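 Drug response profiling of patient-derived Ewing sarcoma and CIC::DUX4 sarcoma tumoroid models (or cells tested directly after isolation from the tumor, 'direct'). The DSS is the normalised AUC (0-100); dDSS is the sample DSS minus the mean DSS of a 34-sarcoma reference cohort profiled in the same lab.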

[2] = tested on: ES-ZH016 direct (Ewing sarcoma cells right after isolation)
Procedure: as §1

[3] = tested on: CDS-ZH001 (patient-derived CIC-DUX4 sarcoma tumoroid)
Procedure: as §1

[4] = tested on: ES-ZH016 (patient-derived Ewing sarcoma tumoroid)
Procedure: as §1

[5] = tested on: ES-ZH007 (patient-derived Ewing sarcoma tumoroid)
Procedure: as §1

[6] = tested on: CDS-ZH003 (patient-derived CIC-DUX4 sarcoma tumoroid)
Procedure: as §1

[7] = tested on: ES-ZH009 (patient-derived Ewing sarcoma tumoroid)
Procedure: as §1

[8] = tested on: ES-ZH008 (patient-derived Ewing sarcoma tumoroid)
Procedure: as §1

[9] = tested on: CDS-ZH001-2 (patient-derived CIC-DUX4 sarcoma tumoroid)
Procedure: as §1

[10] = tested on: ES-ZH002 (patient-derived Ewing sarcoma tumoroid)
Procedure: as §1

[11] = tested on: CDS-ZH002 (patient-derived CIC-DUX4 sarcoma tumoroid)
Procedure: as §1

[12] = tested on: ES-ZH001 (patient-derived Ewing sarcoma tumoroid)
Procedure: as §1

[13] = tested on: CDS-ZH002 direct (CIC-DUX4 sarcoma cells right after isolation)
Procedure: as §1

SMILES	differential drug sensitivity score [1]	differential drug sensitivity score [2]	differential drug sensitivity score [3]	differential drug sensitivity score [4]	differential drug sensitivity score [5]	differential drug sensitivity score [6]	differential drug sensitivity score [7]	differential drug sensitivity score [8]	differential drug sensitivity score [9]	differential drug sensitivity score [10]	differential drug sensitivity score [11]	differential drug sensitivity score [12]	differential drug sensitivity score [13]
CCN(c1cc(-c2ccc(CN3CCOCC3)cc2)cc(C(=O)NCc2c(C)cc(C)[nH]c2=O)c1C)C1CCOCC1 [Tazemetostat]	-1.1	-1.1	-0.8	-0.7	-1.1	-7	1	-1.1	-1.1	-1.1	-0.9	-1.1	-1.1
Nc1ccccc1NC(=O)c1ccc(CNc2nccc(-c3cccnc3)n2)cc1 [Mocetinostat]	8.4	7.8	-3.3	1.4	2.6	-9	1.8	7.1	1.5	2.4	-2.7	0.8	-0.9
CC1(C)CCC(CN2CCN(c3ccc(C(=O)NS(=O)(=O)c4ccc(NCC5CCOCC5)c([N+](=O)[O-])c4)c(Oc4cnc5[nH]ccc5c4)c3)CC2)=C(c2ccc(Cl)cc2)C1 [Venetoclax]	6.1	5.9	3.9	-2.6	-4.7	-9.4	-1.6	7.3	1.4	7.9	-4.7	6.9	-3.5
